Laboratory results taken from patent US20100324081A1, “PREVENTIVE, INHIBITOR OR REMEDY FOR CEREBRAL ANEURYSM COMPRISING IBUDILAST AS AN ACTIVE INGREDIENT” (Kyorin Pharmaceutical Co., Ltd., priority 2007, published 2010).

Tests used:
[1] = test system: female rat animal model used for generating cerebral aneurysm; settings: hormone substitution therapy, estrogen-deficient female rat model; Non-Patent Document 7; cited from earlier work
[2] = test system: rat cerebral aneurysm model; assay: Cerebral aneurysm formation-inhibitory effect on rat cerebral aneurysm model (vascular corrosion cast staging); format: in vivo, Sprague-Dawley rats; settings: for Analysis χ^2 Test (P vs control group) / Number of cases at Stage 1 (irregularity of vascular endothelia at the branched portion) / Number of cases at Stage 2 (slight outward projection) / Number of cases at Stage 0 (no irregularity, no outward projection): 12 weeks, 15 cases
Method: Cerebral aneurysm models of rats were prepared, Ibudilast was administered to these animals at a dose of […] through the oral route.
In this experiment, 7-week-old Sprague-Dawley rats were used and the posterior nenal arteries at both sides of test animal were ligated and the right side common carotid artery of each test animal was likewise ligated (the preparation of a cerebral aneurysm model of rat: see Non-Patent Document 7 specified above). After one week from the foregoing treatments, the administration of a 1% physiological saline was initiated. Then, the ovaries of each test animal on the both sides were excised after 4 weeks from the initial operation. Starting from the day subsequent to the excision, a 5% gum Arabic solution (control group) and Ibudilast were orally administered to these test animals through the use of an oral probe (sound).
The numbers of cases examined herein were as follows:
Control Group (the animal group administered at a dose of 0 mg/kg/day): 20 cases;
Ibudilast (30 mg/kg/day)-Administered Group: 15 cases; and
Ibudilast (60 mg/kg/day)-Administered Group: 15 cases.
After 12 weeks from the initiation of the administration, the rats were sacrificed, and a resin (curable resin: Baston No. 17 Plastic (manufactured and sold by Polyscience Inc.)) was injected into the blood vessels of the animals to thus form a vascular corrosion cast. Then, each branched portion of the left anterior cerebral artery-olfactory artery present in the vascular corrosion cast was examined using an electron microscope. The evaluation of the results obtained was carried out under the blind conditions to thus estimate the progress of the formation of any cerebral aneurysm according to the following criteria:
Evaluation Criteria of Vascular Corrosion Cast:
Stage 0: There was not observed any […] irregularity and any outward projection;
Stage 1: There was observed irregularity of vascular endothelia at the branched portion;
Stage 2: There was observed a slight and outward projection; and
Stage 3: There was observed a substantial and outward projection or a projection which reaches even to the apex of the branched portion.

| SMILES | Effect on cerebral aneurysm formation (in words) [1] | Analysis χ^2 Test (P vs control group) ([2]; Ibudilast 30 mg/kg/day oral) | Number of cases at Stage 1 (irregularity of vascular endothelia at the branched portion) ([2]; Ibudilast 30 mg/kg/day oral) | Number of cases at Stage 2 (slight outward projection) ([2]; Ibudilast 30 mg/kg/day oral) | Number of cases at Stage 0 (no irregularity, no outward projection) ([2]; Ibudilast 30 mg/kg/day oral, vascular corrosion cast, left anterior cerebral artery-olfactory artery branch) | Analysis χ^2 Test (P vs control group) ([2]; Ibudilast 60 mg/kg/day oral) | Number of cases at Stage 0 (no irregularity, no outward projection) ([2]; Ibudilast 60 mg/kg/day oral) | Number of cases at Stage 1 (irregularity of vascular endothelia at the branched portion) ([2]; Ibudilast 60 mg/kg/day oral) | Number of cases at Stage 2 (slight outward projection) ([2]; Ibudilast 60 mg/kg/day oral) | Effect on cerebral aneurysm formation (overall, in words) ([2]; cerebral aneurysm model of rat, oral administration) |
| --- | --- | --- | --- | --- | --- | --- | --- | --- | --- | --- |
| C[C@]12CC[C@@H]3c4ccc(O)cc4CC[C@H]3[C@@H]1CC[C@@H]2O [17β-estradiol] | the formation of any cerebral aneurysm is suppressed | – | – | – | – | – | – | – | – | – |
| CC(C)C(=O)c1c(C(C)C)nn2ccccc12 [Ibudilast] | – | P < 0.005 | 7 | 3 | 4 | P < 0.005 | 4 | 6 | 5 | excellent effect of cerebral aneurysm formation-preventive or suppression |
